Earlier results, collected in US4814324A, “Sterol inhibitors of testosterone 5α-reductase” (Merck & Co., Inc., priority 1987, dated 1989).

What was measured:
[1] = test system: testosterone-5α-reductase; settings: Voigt and Hsia, Endocrinology, 92, 1216 (1973)
[2] = test system: female hamster flank organ; settings: Voigt and Hsia; for response elicited by 5α-dihydrotestosterone (flank organ enlargement) / response elicited by testosterone (flank organ enlargement): topical; for response elicited by 5α-dihydrotestosterone (flank organ enlargement): concomitant with 5α-dihydrotestosterone; for response elicited by testosterone (flank organ enlargement): concomitant with testosterone; for enlargement of the female hamster flank organ: topical application alone

SMILES | testosterone-5α-reductase inhibition in vitro [1] | response elicited by 5α-dihydrotestosterone (flank organ enlargement) [2] | response elicited by testosterone (flank organ enlargement) [2] | enlargement of the female hamster flank organ [2]
C[C@]12CC[C@H]3[C@@H](CCC4=CC(=O)CC[C@@]43C)[C@@H]1CC[C@@H]2C(=O)O [4-androsten-3-one-17β-carboxylic acid] | active inhibitors | did not inhibit the response elicited by 5α-dihydrotestosterone | inhibited the response elicited by testosterone | –
COC(=O)[C@H]1CC[C@H]2[C@@H]3CCC4=CC(=O)CC[C@]4(C)[C@H]3CC[C@]12C [methyl 4-androsten-3-one-17β-carboxylate] | active inhibitors | did not inhibit the response elicited by 5α-dihydrotestosterone | inhibited the response elicited by testosterone | –
C[C@]12CCC(=O)C[C@@H]1CC[C@@H]1[C@@H]2CC[C@]2(C)[C@@H](O)CC[C@@H]12 [5α-dihydrotesterone, 5α-dihydrotestosterone] | – | – | – | caused enlargement of the female hamster flank organ
C[C@]12CC[C@H]3[C@@H](CCC4=CC(=O)CC[C@@]43C)[C@@H]1CC[C@@H]2O [testosterone] | – | – | – | caused enlargement of the female hamster flank organ
